Results from patent US9012493B2, “1-heterodiene derivative and pest control agent” (Nippon Soda Co., Ltd., priority 2009, dated 2015).

Assays:
Type in all cases: in vivo
[1] = tested on: Twospotted Spider Mite (Tetranychus Urticae Koch); test: Efficacy test against twospotted spider mite, spray on kidney bean plant; conditions: 125 ppm, wettable powder diluted with water, sprayed, female adults with resistance to an organophosphorus agent on kidney bean, after 3 days
Description: The wettable powder obtained according to Formulation of Formulation Example 1 was diluted with water so as to control the concentration of the compound to 125 ppm. Seventeen female adults of twospotted spider mite with resistance to an organophosphorus agent were inoculated on a first true leaf of a kidney bean plant (approximately 7 to 10 days after sprouting) sown in a 3 sun/size pot (9 cm). The diluted solution was sprayed. The pot was placed in a temperature-controlled room at a temperature of 25° C. and a humidity of 65%. After 3 days, the adulticidal rate was examined. The test was repeated twice.

[2] = tested on: Rice Armyworm (Mythimna Separata); test: Efficacy test against rice armyworm, corn leaf dip; conditions: 125 ppm, emulsifiable concentrate diluted with water, corn leaves immersed, second instar larvae, after 5 days, 25° C.
Description: (§1) Test Examples of the pest control agent thus obtained according to the present invention are shown below. In respective Test Examples, the insecticidal rate (%) was determined by the following calculation equation. Insecticidal rate (%)=(number of dead pests/number of released pests)×100
The emulsifiable concentrate obtained according to Formulation of Formulation Example 2 was diluted with water so as to control the concentration of the compound to 125 ppm. Leaves of corn were immersed in this diluted solution for 30 seconds and then air-dried. The leaves were put in a petri dish on which a filter paper is laid, and then five second instar larvae of rice armyworm were inoculated. After covering the petri dish with a glass lid, the petri dish was placed in a temperature-controlled room at a temperature of 25° C. and a humidity of 65%. After 5 days, life and death were examined and the insecticidal rate was determined. The test was repeated twice.

[3] = tested on: Sweetpotato Whitefly (Bemisia Tabaci); test: Efficacy test against sweetpotato whitefly, sprayed tomato leaf; conditions: 125 ppm, emulsifiable concentrate diluted with water, adults (type B), after 2 days, 25° C.
Description: as §1
The emulsifiable concentrate obtained according to Formulation of Formulation Example 2 was diluted with water so as to control the concentration of the compound to 125 ppm. The diluted solution was sprayed over a tomato leaf obtained by cutting and then air-dried. Using absorbent cotton, the leaf was fixed to a flask so that a front surface of the leaf faces upward. Seven pairs of adults of sweetpotato whitefly (type B) were inoculated in this container, and the container was placed in a temperature-controlled room at a temperature of 25° C. and a humidity of 65%. After 2 days, life and death were examined and the insecticidal rate was determined. The test was repeated twice.

[4] = tested on: Cotton Aphid (Aphis Gossypii); test: Efficacy test against cotton aphid, spray on cucumber plant; conditions: 125 ppm, emulsifiable concentrate diluted with water, sprayed over cucumber plant with nymphs, after 5 days, 25° C.
Description: as §1
The emulsifiable concentrate obtained according to Formulation of Formulation Example 2 was diluted with water so as to control the concentration of the compound to 125 ppm. Adults of cotton aphids were inoculated to a cucumber plant (approximately 10 days after sprouting) sown in a 3 sun/size pot (9 cm). After 1 day, adult aphids were removed and the diluted solution was sprayed over the cucumber plant on which delivered nymphs are parasitic. The pot was placed in a temperature-controlled room at a temperature of 25° C. and a humidity of 65%. After 5 days, life and death were examined and the insecticidal rate was determined. The test was repeated twice.

C=C1SC(=Nc2ccc(C)cc2)C(=CSc2cccc(F)c2)CC1(C)C (mixture of isomers) [Compound 2-84]
100%: adulticidal rate [1] | insecticidal rate [2] | insecticidal rate [3] | insecticidal rate [4]

C=C1SC(=Nc2ccc(C)cc2)C(=CSc2ccccc2F)CC1(C)C (mixture of isomers) [Compound 2-85]
100%: adulticidal rate [1] | insecticidal rate [2] | insecticidal rate [3] | insecticidal rate [4]

C=C1SC(=Nc2ccc(C)cc2)C(=CSc2ccc(C)cc2)CC1(C)C (mixture of isomers) [Compound 2-86]
100%: adulticidal rate [1] | insecticidal rate [2] | insecticidal rate [3] | insecticidal rate [4]

C=C1SC(=Nc2ccc(C)cc2)C(=CSc2ccc(Cl)cc2)CC1(C)C (mixture of isomers) [Compound 2-87]
100%: adulticidal rate [1] | insecticidal rate [2] | insecticidal rate [3] | insecticidal rate [4]

C=C1SC(=Nc2ccc(C)cc2)C(=CSc2cccc3ccccc23)CC1(C)C (mixture of isomers) [Compound 2-89]
100%: adulticidal rate [1] | insecticidal rate [2] | insecticidal rate [3] | insecticidal rate [4]

C=C1SC(=Nc2ccc(C)cc2)C(=CSc2ccc(F)cc2F)CC1(C)C (mixture of isomers) [Compound 6-7]
100%: adulticidal rate [1] | insecticidal rate [2] | insecticidal rate [3]

C=C1SC(=Nc2ccccc2OC)C(=CSc2ccccc2)CC1(C)C [Compound 2-27]
100%: adulticidal rate [1] | insecticidal rate [2] | insecticidal rate [3]

C=C1SC(=Nc2ccc(OC)cc2)C(=CSc2ccccn2)CC1(C)C [Compound 2-50]
100%: adulticidal rate [1] | insecticidal rate [3] | insecticidal rate [4]

C=C1SC(=Nc2ccc(OC)cc2)C(=CSc2cccs2)CC1(C)C [Compound 2-51]
100%: adulticidal rate [1] | insecticidal rate [4]

C=C1SC(=Nc2ccc(C)cc2OC)C(=CSc2ccccc2)CC1(C)C [Compound 2-59]
100%: adulticidal rate [1] | insecticidal rate [2] | insecticidal rate [3]

C=C1SC(=Nc2ccc(C)cc2)C(=CSc2nccs2)CC1(C)C [Compound 2-73]
100%: adulticidal rate [1] | insecticidal rate [2] | insecticidal rate [4]

C=C1SC(=Nc2ccc(C)cc2)C(=CSc2ccncc2)CC1(C)C [Compound 2-92]
100%: adulticidal rate [1] | insecticidal rate [2] | insecticidal rate [3]

C=C1SC(=Nc2ccc(C)cc2)C(=CSc2cccc(Br)c2)CC1(C)C [Compound 2-101]
100%: adulticidal rate [1] | insecticidal rate [2] | insecticidal rate [3]

C=C1SC(=Nc2ccc(C)cc2)C(=CSc2ccccc2Br)CC1(C)C [Compound 2-102]
100%: adulticidal rate [1] | insecticidal rate [2] | insecticidal rate [3]

C=C1SC(=Nc2ccc(C)cc2)C(=CSc2sccc2C)CC1(C)C [Compound 2-104]
100%: adulticidal rate [1] | insecticidal rate [2] | insecticidal rate [3]

C=C1SC(=Nc2ccc(C)cc2)C(=CSc2cccc(C#N)c2)CC1(C)C [Compound 2-106]
100%: adulticidal rate [1] | insecticidal rate [2] | insecticidal rate [3]

C=C1SC(=Nc2ccc(C)cc2)C(=CSc2c(F)cccc2F)CC1(C)C [Compound 2-114]
100%: adulticidal rate [1] | insecticidal rate [2] | insecticidal rate [3]

C=C1SC(=Nc2ccc(C)cc2)C(=CSc2c(C)cccc2C)CC1(C)C [Compound 2-119]
100%: adulticidal rate [1] | insecticidal rate [2] | insecticidal rate [3]

C=C1SC(=Nc2ccc(C)cc2)C(=CSc2ccc(C(C)C)cc2)CC1(C)C [Compound 2-151]
100%: adulticidal rate [1] | insecticidal rate [2] | insecticidal rate [3]
